Reference: patent publication US6476026B1, “Compounds and compositions as protease inhibitors” (Axys Pharmaceuticals, Inc., priority 1999, dated 2002)

melting point: 135 to 136 °C
Compound: N#CCNC(=O)[C@H]1CCCN1C(=O)OCc1ccccc1 [Compound 50, benzyl 2R-cyanomethylcarbamoylpyrrolidine-1-carboxylate]
